Source: US20240424175A1, “ANTICOAGULANT COMPOUNDS COMPRISING CHELATING AGENTS AND CATIONIC ANTI-COAGULATION ENHANCERS AND METHODS AND DEVICES FOR THEIR USE” (Elixir Medical Corporation, priority 2021, published 2024)

What was measured:
[1] = pH of 1 mg/ml EDTA or analogue in water or phosphate buffer; format: physicochemical
[2] = test system: fresh pig blood; assay: Activated clotting time (ACT) of EDTA or analogues in fresh pig blood (Example 3); format: biochemical; conditions: for Clotting time: blood control 154
Experimental: The ACT measurements were made in fresh pig blood. 1.0 ml of fresh pig blood was added to a test tube containing an activator (Hemochron@Celite@ ACT tubes, Lot F8FTE026 from Accriva Diagnostics, Inc.). A target amount of drug solution was then added into the test tube. The test tube was gently swirled so that the blood and drug was well-mixed. 0.1 ml of 0.3M calcium chloride was then added. The tube was gently shaken before being inserted into the Hemochron Response detector. The ACT read out was recorded and reported. The ACT of the control blood in the absence of any drug as first determined to establish a baseline.

[3] = test system: porcine coronary artery model; assay: Fibrin score, histopathology of stented arteries in porcine coronary artery model (Examples 16, 17); format: in vivo; conditions: 14 mm stents, n = 3; score 0 to 3, smaller is better; bare metal control stent 1.02 ± 0.35
Experimental: The drug eluting stent systems containing different anticoagulants prepared as described in Example 11 were evaluated at 3 hours, 6 hours, 1 day, 3 days, 6 days, 7 days, or 28 days following implantation in a porcine coronary artery model.
After induction of anesthesia, the left or right femoral artery was accessed using standard techniques and an arterial sheath was introduced and advanced into the artery. Vessel angiography was performed under fluoroscopic guidance, a 7 Fr, guide catheter was inserted through the sheath and advanced to the appropriate location where intracoronary nitroglycerin was administered. An appropriate implantation segment of coronary artery was randomly selected and a 0.014″ guidewire inserted. Quantitative Coronary Angiography (QCA) was performed to document the results. The appropriately size stent was advanced to the deployment site. The balloon was inflated at a steady rate to a pressure sufficient to achieve a balloon to artery ratio of approximately 1.1 to 1.0.
Stented portions of coronary arteries were embedded in methyl methacrylate (MMA), then divided into a target of at least three blocks of approximately similar lengths for histology evaluation. Quantitative histopathological evaluation of stented artery sections was then performed and scored as indicated. For Fibrin formation, scores ranged from 0 to 3, with a score of 0 indicating absent or rare minimal spotting around struts of the stent, a score of 1 indicating the presence of fibrin in small amounts localized only around the struts, a score of 2 indicating the moderately abundant or denser presence of fibrin around and extending beyond the struts, and a score of 3 indicating the presence of abundant and dense fibrin and/or bridging of the fibrin between the struts. The mean score was calculated and reported. The mean of each section was then averaged to provide a mean fibrin score per stent. The smaller the fibrin score, the better efficacy.

[4] = test system: Tissue factor generated antiplatelet; conditions: cited from earlier work; for IC50 for Tissue factor generated antiplatelet: expressed in ng/mg
[5] = test system: porcine coronary artery model; assay: Late lumen loss (LLL) by follow up angiography in porcine coronary artery model (Example 16); format: in vivo; conditions: 14 mm stents, n = 3; smaller is better; bare metal control stent 0.17 ± 0.22
[6] = test system: citrated sheep blood; assay: Activated clotting time (ACT) of EDTA or other anti-coagulant compounds in citrated sheep blood (Example 4); format: biochemical
Experimental: The activated clotting time (ACT) evaluation of anticoagulants was performed in Calcium-reconstituted sheep blood and recorded employing the Hemochron® Response device. […] A target amount of EDTA or other anti-coagulant compounds solution was then added into the test tube. […] The tube was gently shaken before being inserted into the Hemochron Response detector. The ACT read out was recorded and reported.

[7] = test system: citrated sheep blood; assay: Activated clotting time (ACT) in calcium-reconstituted citrated sheep blood, Hemochron Response (Example 2); format: biochemical; conditions: individual drug at 0.6 ng/mg; FIG. 2C
Experimental: The activated clotting time (ACT) evaluation of anticoagulants was performed in calcium-reconstituted sheep blood and recorded employing the Hemochron® Response device. […] A target amount of drug solution was then added into the test tube. […] The tube was gently shaken before being inserted into the Hemochron Response detector. The ACT read out was recorded and reported. The ACT of the control blood in the absence of any drug as first determined to establish a baseline. Then ACT was determined in the presence of different concentrations of the drug as a single component. Selected drug combinations were then tested to evaluate for potential synergy in action between the two drugs.

[8] = test system: Human Aortic SMC (HAoSMC, ATCC, PCS-100-012); assay: HAoSMC cell proliferation assay (CellTiter Aqueous, 96-well); format: cell-based; conditions: drug alone, various concentrations; 72 hours; FIGS. 1D-1E
Experimental: Cell proliferation assay was done in 96-well format. Low passage cells were trypsinized and seeded in 96 well plates at a density of ˜4000 cells/well. The cells are allowed to attach overnight in a CO2 incubator. Next day, the medium was removed and replaced with fresh complete medium containing various concentrations of the test compounds. The final concentration of vehicle (DMSO) in the test medium was 0.1%. After adding test compounds, the cells were incubated for 72 hours. Following this period, the medium was removed and then added fresh medium (100 μl) containing CellTiter Aqueous (1× concentration final) to the wells and incubated for 2 hours in the CO2 incubator. At the end of incubation measured fluorescence with a plate-reader. Controlled incubations with untreated cells and blank incubations containing only medium were included and tested similarly. Based on the cell viability assay the percentage inhibition of the cell proliferation was determined at the different concentrations of the drug tested.
Following the cell proliferation assay as indicated earlier, the percent cell proliferation inhibition was determined, and the assay results plotted to determine the IC50.

[9] = In vivo drug release, drug remaining on stent and tissue drug concentration of SS7-SS17 stents (Tables 12A-12D); conditions: 28 D following implantation
From the text: The stented artery was cut longitudinally with surgical scissors. The stents were separated from the tissue.

[10] = 1 mg/ml in 0.01M pH 7.4 phosphate buffer, 21.8-22.3 °C
[11] = final drug concentration 100 ng/mg
[12] = final drug concentration 200 ng/mg
[13] = final drug concentration 300 ng/mg
[14] = final concentration 67 ng/mg (66.7 μg/ml)
[15] = final concentration 100 ng/mg (100 μg/ml)
[16] = final concentration […] (133.3 μg/ml)
[17] = final concentration […] (166.7 μg/ml)
[18] = final drug concentration 75 ng/mg
[19] = final drug concentration 150 ng/mg
[20] = final drug concentration 250 ng/mg
[21] = final drug concentration 500 ng/mg

## O=C([O-])CN(CCN(CC(=O)[O-])CC(=O)O)CC(=O)O.[Na+].[Na+] [EDTA•2Na•2H2O, disodium edetate]
[1]; [10]
  pH: 6.92
[1]; 1 mg/ml in d-water, 21.8-22 °C
  pH: 6.42
[2]; [11]
  Increase in clotting time compared to control: 37 s
  Clotting time: 191 s
[2]; [12]
  Increase in clotting time compared to control: 110 s
  Clotting time: 264 s
[2]; [13]
  Increase in clotting time compared to control: 220 s
  Clotting time: 374 s
[2]; final drug concentration 300 ng/mg, blood control 154, listed as EDTA disodium salt
  Clotting time (sec): same trend

## O=C(NC[C@H]1CN(c2ccc(N3CCOCC3=O)cc2)C(=O)O1)c1ccc(Cl)s1 [Rivaroxaban]
[3]
  Fibrin score at day 7: effective at inhibiting fibrin formation
[4]
  IC50: 312 nM
  IC50 for Tissue factor generated antiplatelet: 0.136 ng/mg
[5]
  LLL at day 7: not effective at inhibiting smooth muscle cell proliferation

## O=C([O-])CN(CCN(CC(=O)O)CC(=O)O)CC(=O)[O-].[K+].[K+] [EDTA dipotasium]
[1]; [10]
  pH: 6.93
[1]; 1 mg/ml in d-water, 21.8-22 °C
  pH: 6.25

## CCCCCCCCCCCCCC[N+](C)(C)Cc1ccccc1.[Cl-] [Benzyldimethyltetradecylammonium chloride]
[6]; [14]
  Clotting time: 316 s
  Increase in clotting time compared to control: 114 s
[6]; [15]
  Clotting time: 421 s
  Increase in clotting time compared to control: 219 s
[6]; [16]
  Clotting time: 983 s
  Increase in clotting time compared to control: 781 s
[6]; [17]
  Clotting time: 1370 s
  Increase in clotting time compared to control: 1168 s

## O=C(O)C(S)C(S)C(=O)O (stereo not shown) [Dimercaptosuccinic acid(DMSA), dimercaptosuccinic acid]
[2]; [12]
  Increase in clotting time compared to control: -3 s
  Clotting time: 151 s

## O=C(O)CN(CCN(CC(=O)O)CC(=O)O)CC(=O)O [EDTA, ethylenediaminetetraacetic acid]
[2]; [18]
  Increase in clotting time compared to control: 25 s
  Clotting time: 179 s
[2]; [11]
  Increase in clotting time compared to control: 93 s
  Clotting time: 247 s
[2]; [19]
  Increase in clotting time compared to control: 121 s
  Clotting time: 275 s
[2]; [12]
  Increase in clotting time compared to control: >346 s

## O=C([O-])CN(CCN(CC(=O)[O-])CC(=O)O)CC(=O)[O-].[Na+].[Na+].[Na+] [EDTA tri sodium, trisodium edetate]
[1]; [10]
  pH: 7.77
[1]; 1 mg/ml in d-water, 21.8-22 °C
  pH: 9.21

## O=C([O-])CN(CCN(CC(=O)[O-])CC(=O)[O-])CC(=O)[O-].[Na+].[Na+].[Na+].[Na+] [EDTA•4Na•xH2O, tetrasodium edetate]
[1]; [10]
  pH: 8.27
[1]; 1 mg/ml in d-water, 21.8-22 °C
  pH: 9.61
[2]; [11]
  Increase in clotting time compared to control: 50 s
  Clotting time: 204 s
[2]; [12]
  Increase in clotting time compared to control: 121 s
  Clotting time: 275 s
[2]; [20]
  Increase in clotting time compared to control: 175 s
  Clotting time: 329 s
[2]; [13]
  Increase in clotting time compared to control: >346 s
  Clotting time: >500 s
[2]; final drug concentration 300 ng/mg, blood control 154, listed as EDTA tetra sodium salt
  Clotting time (sec): same trend

## COc1ccc(-n2nc(C(N)=O)c3c2C(=O)N(c2ccc(N4CCCCC4=O)cc2)CC3)cc1 [Apixaban]
[7]
  ACT: 522
[8]
  inhibition of HAoSMC proliferation: small to no inhibition

## CC(=O)OCOC(=O)CN(CCN(CC(=O)OCOC(C)=O)CC(=O)OCOC(C)=O)CC(=O)OCOC(C)=O [EDTA tetra acetoxymethyl ester, tetra acetoxymethyl ester EDTA]
[2]; [21]
  Increase in clotting time compared to control: 4 s
  Clotting time: 158 s

## CC1CNc2c(cccc2S(=O)(=O)N[C@@H](CCCNC(=N)N)C(=O)N2CC[C@@H](C)C[C@@H]2C(=O)O)C1 (stereo partly shown) [Argatroban]
[3]
  Fibrin score at day 7: not effective at inhibiting fibrin formation
[4]
  IC50: 79 nM
  IC50 for Tissue factor generated antiplatelet: 0.04 ng/mg
[9]
  Tissue drug concentration (ng/mg) in the stented segment tissue, Argatroban: about 1.69 ng/mg
[5]
  LLL at day 7: not effective at inhibiting smooth muscle cell proliferation
[7]
  ACT: 301
[8]
  inhibition of HAoSMC proliferation: small to no inhibition

## Dalteparin
[3]
  Fibrin score at day 7: not effective at inhibiting fibrin formation
[5]
  LLL at day 7: not effective at inhibiting smooth muscle cell proliferation
